Molecules are shown by their SMILES. Where two headings read alike, the source gives them in different places.

This note sets out measurements from PMC8617627, “Novel DYRK1A Inhibitor Rescues Learning and Memory Deficits in a Mouse Model of Down Syndrome” (Pharmaceuticals, 2021).

Common to all, as to experiment: Kinase profile (33P ATP filter binding)
Type in all cases: biochemical

For one experiment, the target named is T1, BRSK2 (Homo sapiens, UniProt Q8IWQ3).
T1 sequence (Q8IWQ3 1-736): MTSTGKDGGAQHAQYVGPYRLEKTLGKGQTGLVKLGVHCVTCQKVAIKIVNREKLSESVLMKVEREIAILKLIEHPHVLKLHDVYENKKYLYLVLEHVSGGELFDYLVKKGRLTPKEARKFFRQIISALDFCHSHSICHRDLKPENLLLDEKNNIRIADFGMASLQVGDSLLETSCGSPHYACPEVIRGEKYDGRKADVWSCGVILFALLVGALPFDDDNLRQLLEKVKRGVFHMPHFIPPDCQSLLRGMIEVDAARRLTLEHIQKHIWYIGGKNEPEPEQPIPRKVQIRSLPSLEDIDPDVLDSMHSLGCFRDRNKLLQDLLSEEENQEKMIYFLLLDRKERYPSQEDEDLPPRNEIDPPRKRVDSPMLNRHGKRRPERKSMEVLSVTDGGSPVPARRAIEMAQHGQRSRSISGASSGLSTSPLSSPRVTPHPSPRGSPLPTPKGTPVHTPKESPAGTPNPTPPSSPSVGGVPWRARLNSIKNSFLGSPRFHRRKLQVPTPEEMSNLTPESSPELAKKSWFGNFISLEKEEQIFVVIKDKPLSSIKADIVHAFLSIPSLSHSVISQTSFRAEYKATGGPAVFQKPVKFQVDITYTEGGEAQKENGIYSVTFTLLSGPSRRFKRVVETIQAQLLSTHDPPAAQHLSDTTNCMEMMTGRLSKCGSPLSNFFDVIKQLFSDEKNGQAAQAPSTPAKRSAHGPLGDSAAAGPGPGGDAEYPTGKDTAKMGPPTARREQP
The settings on record: read-out: Remaining protein kinase activity.

Another experiment addresses IRAK1 (Homo sapiens, UniProt P51617). The settings on record: read-out: Remaining protein kinase activity.
A further experiment addresses T2, MARK4 (Homo sapiens, UniProt Q96L34).
T2 sequence (Q96L34 1-752): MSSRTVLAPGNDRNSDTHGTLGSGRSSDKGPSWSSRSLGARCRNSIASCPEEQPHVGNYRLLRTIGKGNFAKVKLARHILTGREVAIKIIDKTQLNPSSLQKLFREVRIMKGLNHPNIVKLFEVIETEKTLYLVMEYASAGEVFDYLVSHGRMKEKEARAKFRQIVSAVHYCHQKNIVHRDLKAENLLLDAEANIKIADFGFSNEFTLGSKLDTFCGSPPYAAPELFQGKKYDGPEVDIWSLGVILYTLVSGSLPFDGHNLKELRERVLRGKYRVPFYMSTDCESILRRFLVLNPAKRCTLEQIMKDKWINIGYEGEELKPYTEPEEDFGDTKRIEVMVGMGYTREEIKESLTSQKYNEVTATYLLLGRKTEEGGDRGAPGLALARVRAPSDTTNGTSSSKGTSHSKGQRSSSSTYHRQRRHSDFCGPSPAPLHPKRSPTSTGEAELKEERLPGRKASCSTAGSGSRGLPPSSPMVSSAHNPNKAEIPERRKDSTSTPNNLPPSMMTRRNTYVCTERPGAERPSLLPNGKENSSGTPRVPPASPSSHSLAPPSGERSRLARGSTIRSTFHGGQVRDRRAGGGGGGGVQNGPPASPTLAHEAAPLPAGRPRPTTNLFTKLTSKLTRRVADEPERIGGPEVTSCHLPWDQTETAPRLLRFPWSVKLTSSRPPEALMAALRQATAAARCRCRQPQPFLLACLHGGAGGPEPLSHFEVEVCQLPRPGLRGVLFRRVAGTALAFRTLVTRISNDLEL

The test system of another experiment is PHK.
The target of a further experiment is PKCa (Homo sapiens, UniProt P17252). The settings on record: read-out: Remaining protein kinase activity.
For another experiment, the target named is PLK1 (Homo sapiens, UniProt P53350). The settings on record: read-out: Remaining protein kinase activity.
PLK1, sequence (P53350 whole entry): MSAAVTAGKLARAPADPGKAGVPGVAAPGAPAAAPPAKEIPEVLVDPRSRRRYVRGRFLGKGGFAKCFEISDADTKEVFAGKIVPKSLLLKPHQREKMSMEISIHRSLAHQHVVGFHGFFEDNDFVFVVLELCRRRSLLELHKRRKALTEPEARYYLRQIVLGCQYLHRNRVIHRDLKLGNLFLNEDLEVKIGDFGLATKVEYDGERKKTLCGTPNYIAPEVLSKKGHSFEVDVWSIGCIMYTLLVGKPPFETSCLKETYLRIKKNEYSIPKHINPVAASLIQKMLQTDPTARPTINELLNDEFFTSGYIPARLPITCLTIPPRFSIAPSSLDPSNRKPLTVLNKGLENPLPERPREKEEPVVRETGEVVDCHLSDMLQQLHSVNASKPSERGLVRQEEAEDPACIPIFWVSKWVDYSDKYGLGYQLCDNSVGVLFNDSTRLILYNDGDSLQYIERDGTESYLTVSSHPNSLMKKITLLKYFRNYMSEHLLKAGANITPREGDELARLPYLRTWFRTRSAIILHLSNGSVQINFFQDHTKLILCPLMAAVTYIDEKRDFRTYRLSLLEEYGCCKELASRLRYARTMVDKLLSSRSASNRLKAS
For another experiment, the target named is TTBK1 (Homo sapiens, UniProt Q5TCY1). The settings on record: read-out: Remaining protein kinase activity.
TTBK1, sequence (Q5TCY1 whole entry): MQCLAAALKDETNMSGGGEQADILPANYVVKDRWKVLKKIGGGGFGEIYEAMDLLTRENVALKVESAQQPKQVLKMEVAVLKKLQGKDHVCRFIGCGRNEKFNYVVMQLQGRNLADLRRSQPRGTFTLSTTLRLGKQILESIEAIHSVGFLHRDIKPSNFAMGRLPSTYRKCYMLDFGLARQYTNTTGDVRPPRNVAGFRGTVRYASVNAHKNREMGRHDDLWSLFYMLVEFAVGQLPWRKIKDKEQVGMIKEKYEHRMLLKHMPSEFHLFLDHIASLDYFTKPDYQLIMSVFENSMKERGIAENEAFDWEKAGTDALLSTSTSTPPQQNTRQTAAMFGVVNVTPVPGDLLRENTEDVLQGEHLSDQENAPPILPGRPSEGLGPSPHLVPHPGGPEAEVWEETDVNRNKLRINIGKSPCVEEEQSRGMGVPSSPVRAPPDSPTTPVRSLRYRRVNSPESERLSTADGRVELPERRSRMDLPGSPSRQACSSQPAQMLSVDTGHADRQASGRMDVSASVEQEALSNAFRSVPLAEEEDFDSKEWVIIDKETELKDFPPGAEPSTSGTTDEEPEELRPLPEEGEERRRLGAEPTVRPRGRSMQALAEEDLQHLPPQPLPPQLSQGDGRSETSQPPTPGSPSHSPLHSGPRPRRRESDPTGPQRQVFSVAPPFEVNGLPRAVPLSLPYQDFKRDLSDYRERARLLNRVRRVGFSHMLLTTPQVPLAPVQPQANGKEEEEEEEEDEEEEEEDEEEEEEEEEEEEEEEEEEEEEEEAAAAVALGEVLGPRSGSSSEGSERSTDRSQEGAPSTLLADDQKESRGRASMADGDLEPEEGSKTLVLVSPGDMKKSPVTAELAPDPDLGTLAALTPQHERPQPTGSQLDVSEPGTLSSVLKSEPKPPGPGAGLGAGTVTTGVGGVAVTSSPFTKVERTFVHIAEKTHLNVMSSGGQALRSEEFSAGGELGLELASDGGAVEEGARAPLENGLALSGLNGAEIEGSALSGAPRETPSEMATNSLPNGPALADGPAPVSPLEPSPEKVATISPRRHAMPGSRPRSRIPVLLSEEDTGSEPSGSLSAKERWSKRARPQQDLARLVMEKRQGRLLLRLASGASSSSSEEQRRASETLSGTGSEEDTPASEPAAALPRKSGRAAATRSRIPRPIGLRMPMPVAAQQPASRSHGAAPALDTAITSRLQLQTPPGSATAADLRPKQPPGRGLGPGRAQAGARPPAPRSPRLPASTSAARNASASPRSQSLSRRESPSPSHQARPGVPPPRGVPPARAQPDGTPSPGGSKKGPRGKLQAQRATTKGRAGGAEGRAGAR
The target of the next experiment is T3, p38g MAPK (Homo sapiens, UniProt P53778).
T3 sequence (P53778 1-367): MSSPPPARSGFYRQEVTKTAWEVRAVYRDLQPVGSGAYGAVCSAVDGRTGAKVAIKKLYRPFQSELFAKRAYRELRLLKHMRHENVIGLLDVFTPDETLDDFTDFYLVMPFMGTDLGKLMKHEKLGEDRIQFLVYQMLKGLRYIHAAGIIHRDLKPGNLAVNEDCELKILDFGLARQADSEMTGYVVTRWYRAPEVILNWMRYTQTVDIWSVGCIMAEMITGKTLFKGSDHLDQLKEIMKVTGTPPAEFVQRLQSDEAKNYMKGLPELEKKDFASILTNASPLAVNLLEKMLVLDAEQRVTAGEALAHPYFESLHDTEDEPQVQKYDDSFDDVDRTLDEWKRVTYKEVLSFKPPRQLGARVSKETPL
The settings on record: read-out: Remaining protein kinase activity.

IRAK1, sequence (P51617 whole entry): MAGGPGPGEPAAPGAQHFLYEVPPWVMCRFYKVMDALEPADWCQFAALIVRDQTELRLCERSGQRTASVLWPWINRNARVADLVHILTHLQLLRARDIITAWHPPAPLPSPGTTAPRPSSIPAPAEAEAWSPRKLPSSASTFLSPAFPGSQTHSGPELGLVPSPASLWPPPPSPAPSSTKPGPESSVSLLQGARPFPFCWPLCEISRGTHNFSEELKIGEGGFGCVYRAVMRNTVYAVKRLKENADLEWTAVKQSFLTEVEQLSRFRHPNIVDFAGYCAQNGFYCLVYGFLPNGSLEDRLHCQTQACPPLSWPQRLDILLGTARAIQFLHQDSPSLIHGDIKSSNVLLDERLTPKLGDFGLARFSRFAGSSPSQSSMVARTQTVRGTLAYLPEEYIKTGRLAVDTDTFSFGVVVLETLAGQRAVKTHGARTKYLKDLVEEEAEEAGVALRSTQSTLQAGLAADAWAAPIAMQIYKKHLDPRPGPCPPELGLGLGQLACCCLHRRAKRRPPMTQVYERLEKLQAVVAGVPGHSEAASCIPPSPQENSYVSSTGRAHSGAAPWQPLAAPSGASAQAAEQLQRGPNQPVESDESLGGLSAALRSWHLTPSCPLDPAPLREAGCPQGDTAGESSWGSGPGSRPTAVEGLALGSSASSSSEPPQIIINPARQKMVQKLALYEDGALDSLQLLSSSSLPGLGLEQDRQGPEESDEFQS

With `COc1ccc2sc(-c3cncc(N)c3)nc2c1` [compound 1, 5-(5-Methoxybenzo[d]thiazol-2-yl)pyridin-3-amine], the remaining activity at 1 µM on BRSK2 (BRSK2, 1 μM) came to 125%; at IRAK1 (IRAK1, 1 μM), 95%; at PKCa (PKCa, 1 μM), 110%; at PLK1 (PLK1, 1 μM), 99%; on TTBK1 (TTBK1, 1 μM), 109%; at p38g MAPK (p38g MAPK, 1 μM) it was 110%. The remaining activity at 100 µM at BRSK2 (BRSK2, 100 μM) is 53%; on IRAK1 (IRAK1, 100 μM), 24%; at PKCa (PKCa, 100 μM) it was 63%; at PLK1 (PLK1, 100 μM), 73%; on TTBK1 (TTBK1), 90%; at p38g MAPK (p38g MAPK, 100 μM) it was 37%. In addition, the “Remaining protein kinase activity” value amounted to 131% on MARK4 (1 μM), 58% on MARK4 (100 μM), 101% in the experiment with PHK (1 μM) and 52% with PHK (100 μM).
For the compound `COc1ccc2sc(-c3cncc(NC(C)=O)c3)nc2c1` [PST-001, N-(5-(5-Methoxybenzo[d]thiazol-2-yl)pyridin-3-yl)acetamide], the remaining activity at 1 µM is 128% at BRSK2; 103% at IRAK1; 119% at PKCa; 112% on PLK1; 109% on TTBK1; 125% on p38g MAPK. The remaining activity at 100 µM came out at 125% at BRSK2; 93% on IRAK1; 85% on PKCa; 115% at PLK1; 110% on TTBK1 (TTBK1); 105% at p38g MAPK. In addition, the entries for the “Remaining protein kinase activity” value at MARK4 (1 μM), at MARK4 (100 μM) and with PHK (100 μM) were 121%, 103% and 83%, respectively.

What is called remaining activity is the signal under treatment as a percentage of the control signal.
